The test system of one data set is hepatic glucose fluxes. Description: Hepatic glucose fluxes (flux through Glc-6-Pase, glucose cycling, direct pathway) after ICV OA. It counts as in vivo, rat. On the procedure:
Analytical Procedures and Calculations. Plasma glucose was measured by the glucose oxidase method (Glucose Analyzer II, Beckman Instruments, Inc. Fullerton, Calif., USA). Plasma insulin and leptin levels were determined by RIA (rat Leptin RIA kit, Linco Research Inc., St. Charles, Mo.). Serum adiponectin was measured by RIA (Linco Research, Inc., St. Charles, Mo.). Plasma non-esterified fatty acid concentrations were determined an enzymatic method by an automated kit according to the manufacturer's specifications (Waco Pure Chemical Industries. Osaka, Japan). The radioactivity of [3-^3H]glucose in plasma was measured from supernatants of Ba (OH)2 and from ZnSO4 precipitates (Somogyi procedure), after each was evaporated to dryness for the removal of tritiated water. Hepatic uridine diphosphoglucose (UDP-glucose) concentrations and specific activities were obtained by two sequential chromatographic separations, as previously described (Giaccari and Rossetti, 1989; 1992; Rossetti et al., 1993; 1996). Calculations were performed as described (Barzilai et al., 1997).
ICV OA markedly decreases the in vivo flux through Glc-6-Pase. GP represents the net contribution of glucosyl units derived from gluconeogenesis and glycogenolysis. However, a portion of glucose entering the liver via phophorylation by glucokinase is also a substrate for de-phosphorylation via Glc-6-Pase. This futile cycle between glucokinase and Glc-6-Pase is commonly named glucose cycling and accounts for the difference between the total glucose output (flux through Glc-6-Pase) and GP (FIG. 9a).
In order to further delineate the mechanisms responsible for the effect of ICV OA infusion on hepatic glucose production we estimated the in vivo flux through Glc-6-Pase and the relative contribution of glucose cycling to glucose output (Table 3; FIG. 9b,c). FIG. 9b,c depict the effect of ICV OA and ICV vehicle on the rates of hepatic glucose fluxes during the pancreatic-insulin clamp procedure. […]

The target of a further data set is T1, hypothalamic CPT1 (Rattus norvegicus, UniProt P32198).
T1 sequence (P32198 1-773): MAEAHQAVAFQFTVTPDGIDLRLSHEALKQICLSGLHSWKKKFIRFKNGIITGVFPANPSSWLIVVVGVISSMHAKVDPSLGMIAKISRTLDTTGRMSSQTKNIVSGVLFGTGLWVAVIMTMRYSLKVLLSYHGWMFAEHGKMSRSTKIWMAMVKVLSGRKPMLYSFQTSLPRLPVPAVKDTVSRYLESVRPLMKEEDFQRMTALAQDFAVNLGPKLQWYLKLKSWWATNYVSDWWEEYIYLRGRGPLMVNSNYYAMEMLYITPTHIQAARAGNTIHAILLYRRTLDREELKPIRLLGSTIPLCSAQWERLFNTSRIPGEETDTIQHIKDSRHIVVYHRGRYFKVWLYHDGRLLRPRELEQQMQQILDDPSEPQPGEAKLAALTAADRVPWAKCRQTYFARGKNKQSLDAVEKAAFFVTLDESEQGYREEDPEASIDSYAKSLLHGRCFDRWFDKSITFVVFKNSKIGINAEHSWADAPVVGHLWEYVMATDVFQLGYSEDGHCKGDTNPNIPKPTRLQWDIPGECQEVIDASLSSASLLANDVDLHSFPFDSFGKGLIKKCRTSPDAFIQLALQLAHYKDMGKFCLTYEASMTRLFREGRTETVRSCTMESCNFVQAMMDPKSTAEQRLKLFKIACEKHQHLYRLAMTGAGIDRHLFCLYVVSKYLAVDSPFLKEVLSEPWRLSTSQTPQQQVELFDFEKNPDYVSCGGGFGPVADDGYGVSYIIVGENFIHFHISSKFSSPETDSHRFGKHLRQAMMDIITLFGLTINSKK
Description: Food intake after ICV bolus of CPT1 antagonists. It counts as in vivo. Also on record: CPT1 activity was measured in the particulate fraction of protein extracts from animals treated with ICV control injections; from tissue; host or cells: hypothalamus (arcuate nucleus) of male Sprague-Dawley rats, in vivo or ex vivo. To be noted: for decrease in daily food intake: 24-48 h after single ICV administration, ST 1326 high dose; for change in food intake from baseline: ST 1326 high dose (25 pmoles); for effect on food intake / feeding behavior: single ICV injection. As to the method: Hypothalamic inhibition of CPT1 decreases food intake. First we examined whether central administration of molecular and pharmacological antagonists of CPT1 modulates feeding behavior in conscious rats (FIG. 3). […] Food intake was monitored in metabolic cages before and up to 72 h after the ICV injections (Obici et al., 2002a). […] The marked effect of ICV CPT1L-Ribo on food intake was significant when compared with either control vector or with an unrelated control ribozyme (FIG. 3c). […] The anorectic effect of central CPT1 inhibition lasted for at least 48 h following a single ICV administration. These decreases in food intake were significant compared with both baseline and vehicle/control (FIG. 3a-e). The changes from baseline induced by CPT1 inhibition were statistically significant at 24 h (−17.6±2.0 g and −12.4±3.9 g), and 48 h (−13.4±1.8 g and −7.8±3.8 g) following ICV administration of CP1L-Ribo and high dose ST 1326, respectively (FIGS. 3b and e). This represented a ˜50% decrease in daily food intake, which returned toward baseline values by 72 h.
Animal preparation for in vivo experiments. We studied ninety-three 10-week old male Sprague-Dawley rats (Charles River Breeding Laboratories, Wilmington, Mass.). Rats were housed in individual cages and subjected to a standard light-dark cycle. Three weeks prior to the in vivo studies, we placed a chronic catheter in the third cerebral ventricle by stereotaxic surgery (Obici et al., 2002a; Obici et al., 2001; Liu et al., 1998). One week before the pancreatic-insulin clamp protocols, we placed additional catheters in the right internal jugular and left carotid artery (Obici et al., 2001; Liu et al., 1998). All ICV solutions were dissolved in artificial cerebral spinal fluid (aCSF). Food intake was monitored daily.
Effect of central inhibition of CPT1 and food intake. We examined the effects of ICV CPT1L-Ribo and ST 1326 on food intake. Three-hours before the start of the dark cycle, CPT1L-Ribo or vector control, ST 1326 or ST 1340 was injected as a bolus via indwelling catheters implanted in the third cerebral ventricle. In the feeding studies, rats received a single bolus injection of 25 pmoles of ST1340 or two different doses (5 and 25 pmoles) of ST1326. Rats were adapted to the metabolic cages and their daily food intake had been constant (changes <10%) for a minimum of three consecutive days preceding the ICV injections. Food intake was continuously monitored for the following 72 h.

Setting [1] is: caloric restricted rats (55 kcal/d).
[2] abbreviates: 24 h after single ICV administration.
[3] abbreviates: 48 h after single ICV administration.

Entries after “also recorded” stand apart in the source; their conditions may differ.

With `CCCCCCCC/C=C\CCCCCCCC(=O)O` [OA, oleic acid], the glucose cycling result is “modestly and similarly decreased” with hepatic glucose fluxes (setting [1]); “modestly and similarly decreased” in the data set on hepatic glucose fluxes (over-fed rats (140 kcal/d)). Further, the “total glucose output (in vivo flux through glucose-6-phosphatase)” value with hepatic glucose fluxes (setting [1]) was “markedly suppressed”.

Turning to `CCCCCCCCCCCCCCNC(=O)N[C@H](CC(=O)[O-])C[N+](C)(C)C` [ST1326, (R)-N-(tetradecylcarbamoyl)-aminocarnitine], the “inhibition of daily food intake” value against hypothalamic CPT1 (5 pmoles single ICV injection) was “statistically significant on day 1 and 2”; against hypothalamic CPT1 (25 pmoles single ICV injection), “statistically significant on day 1 and 2”. Besides, the “food intake on day 3 compared to control group” value on hypothalamic CPT1 (25 pmoles (high dose) single ICV injection, day 3) was “significantly lowered food intake”. Moreover, at hypothalamic CPT1, the “decrease in daily food intake” value is on record as ~50%. In addition, the figures for the “change in food intake from baseline” value on hypothalamic CPT1 (setting [2]) and on hypothalamic CPT1 (setting [3]) were -12.4 ± 3.9 g and -7.8 ± 3.8 g, respectively. For the same compound, at hypothalamic CPT1, the “effect on food intake / feeding behavior” value is reported as “markedly inhibited food intake”.

For the compound “CPT1L-Ribo: plasmid (pTarget, CMV promoter) expressing a hammerhead ribozyme that specifically cleaves rat CPT1L mRNA, complexed to PEI for ICV injection (DNA CUGUACCAAAGAGCUGUAGAGUCCGUGAGGACGAAACGCCGCUCACAAUG)”, in the data set with hypothalamic CPT1, the “decrease in daily food intake” value is on record as ~50% and the “effect on food intake / feeding behavior” value was “significantly suppressed from day 1 to day 3; also recorded: rapid onset of anorexia”. Also, the “change in food intake from baseline” value with hypothalamic CPT1 (setting [2]) is -17.6 ± 2.0 g. Besides, the “change in food intake from baseline” value in the data set with hypothalamic CPT1 (setting [3]) was -13.4 ± 1.8 g. In addition, the average food intake in the data set with hypothalamic CPT1 (first night following ICV administration) was determined as 13.0±1.9 gr./day.

Source of the values: patent US7705016B2, “Regulation of food intake by modulation of long-chain fatty acyl-CoA levels in the hypothalamus” (Albert Einstein College of Medicine of Yeshiva University, priority 2003, dated 2010).
